Measurements reported in US6403604B1, “Nitrogen-based camptothecin derivatives” (California Pacific Medical Center, priority 2001, dated 2002).
Like-named read-outs stand apart in the source and are kept apart here.

Assays:
HCT116 cells = type: cell-based; details: 72 hours drug incubation, colonies counted after 7 days
Experimental: This example provides directions for growing cells and testing compounds of the invention for their effect on the growth of the cells.
Cell Colony Formation Assay
Four hundred cells (HCT 116, PC-3) or five hundred cells (VM46) were plated in 60 mm Petri dishes containing 2.7 ml of medium (modified McCoy's 5a medium) containing 10% fetal bovine serum and 100 units/ml penicillin and 100 mg/ml streptomycin. The cells were incubated in a CO2 incubator at 37° C. for 5 hours for attachment to the bottom of Petri dishes. Drugs were made fresh in medium at ten times the final concentration, and then 0.3 ml of this stock solution was added to the 2.7 ml of medium in the dish. The cells were then incubated with drugs for 72 hours at 37° C. At the end of the incubation the drug-containing media were decanted, the dishes were rinsed with 4 ml of Hank's Balance Salt Solution (HBSS), 5 ml of fresh medium was added, and the dishes were returned to the incubator for colony formation.
Values of ID50 (the drug concentration producing 50% inhibition of colony 5 formation) may be determined for each tested compound.

C3H/HeJ mice = assay: in vivo
Experimental: (§1) This example provides directions for performing in vivo toxicity tests of the compounds of the invention on C3H/HeJ mice.
(§2) Acute toxicities of the compounds of this invention are evaluated on C3H/HeJ mice (body weight 18-22 g). The MTD40 (maximum tolerated dose at day 40) values are determined by the standard procedure described by Gad and Chengelis (see, for example, “Acute Toxicology Testing,” 2nd Ed., Shayne O. Gad and Christopher P. Chengelis, pp. 186-195 (Academic Press).) In the consecutive type studies, 2 mice are dosed at low and moderate doses of 40 and 100 mg/kg. If no severe and irreversible toxicity (euthanasia is required) occurs at these doses, a new pair of animals is initiated at 180 mg/kg, which is 1.8 times higher than 100 mg/kg. Sequential dosages (about 3 doses on 3 pairs of animals, i.e. 2 mice for each drug dose) are increased by a factor of 1.8 until severe and irreversible toxicity (euthanasia is required) occurred. Then another pair of animals is initiated at the highest nonlethal dosage, and successive dosages were increased by a factor of 1.15. The result of this exercise is two dosages, one apparently nonlethal and the other lethal if severe and irreversible toxicity occurs and euthanasia is required, separated by a factor of 1.15. Six mice are dosed at each dosage. If no severe and irreversible toxicity occurs at the lower dosage and at least one with severe and irreversible toxicity occurs at the higher dose, then the lower dose is considered to be the MTD. The compounds of this invention are administered to C3H/HeJ mice by intraperitoneal injection. Drug toxicity is evaluated on mice checked daily for 45 days. The toxicity parameters reported will be the MTD40.

in vivo = details: C3H/HeJ, mouse, in vivo, ip
Experimental: as §1, §2

[1] = test system: mouse leukemia L1210 system; details: cited from earlier work
[2] = cited from earlier work
[3] = maximum tolerated dose, C3H/HeJ mice, intraperitoneal injection

| SMILES | Survival (%) of HCT116 (HCT116 cells; 10 nM) | Survival (%) of HCT116 (HCT116 cells; 100 nM) | MTD (C3H/HeJ mice; [3]) | Survival (%) of HCT116 (HCT116 cells; 1 nM) | MTD at 45 days (in vivo) | antitumor activity [1] | solubility in water [2] | MTD (C3H/HeJ mice; mouse, in vivo, ip) |
| --- | --- | --- | --- | --- | --- | --- | --- | --- |
| CCC1(OC(=O)CCN2C(=O)C=CC2=O)C(=O)OCc2c1cc1n(c2=O)Cc2cc3ccccc3nc2-1 (stereo not drawn) [010104 (2), Camptothecin-20S-Ester of 3-Maleimidopropionic Acid] | 95.54% | 0% |  |  |  |  |  |  |
| CC[C@@]1(OC(=O)CCN2C(=O)c3ccccc3C2=O)C(=O)OCc2c1cc1n(c2=O)Cc2cc3ccccc3nc2-1 [000503 (1), Camptothecin-20S-Ester of 3-Phthalimidopropionic Acid] | 95.24% | 0% | 150 mg/kg |  |  |  |  |  |
| CC[C@@]1(OC(=O)CCN2CCN(c3ccccc3Cl)CC2)C(=O)OCc2c1cc1n(c2=O)Cc2cc3ccccc3nc2-1 [010117 (11), Camptothecin-20S-ester of 3-[4-(2-chlorophenyl)-1-piperazinyl]propionic Acid] | 0% | 0% |  | 100% |  |  |  |  |
| CC[C@@]1(OC(=O)CCN2CCN(c3ccc([N+](=O)[O-])cc3)CC2)C(=O)OCc2c1cc1n(c2=O)Cc2cc3ccccc3nc2-1 [010105 (9), Camptothecin-20S-ester of 3-[4-(4-nitrophenyl)-1-piperazinyl]propionic Acid] | 0% | 0% |  | 94.14% |  |  |  |  |
| CC[C@@]1(OC(=O)CCN2CCN(c3ccc(F)cc3)CC2)C(=O)OCc2c1cc1n(c2=O)Cc2cc3ccccc3nc2-1 [010124 (12), Camptothecin-20S-ester of 3-[4-(4-fluorophenyl)-1-piperazinyl]propionic Acid] | 0% | 0% |  | 100% |  |  |  |  |
| CC[C@@]1(O)C(=O)OCc2c1cc1n(c2=O)Cc2cc3ccccc3nc2-1 [Camptothecin, (S)-4-ethyl-4-hydroxy-1H-pyrano-[3′,4′:6,7]indolizinol[1,2-b]quinoline-3,14(4H, 12H)-dione] | 73.72% | 0% |  |  | 12 mg/kg | antitumor activity | essentially insoluble |  |
| CC[C@@]1(OC(=O)CCN2CCN(Cc3ccccc3)CC2)C(=O)OCc2c1cc1n(c2=O)Cc2cc3ccccc3nc2-1 [001204 (7), Camptothecin-20s-ester of 3-[(4-benzyl)-1-piperazinyl]propionic Acid] | 0% | 0% |  | 64.04% |  |  |  |  |
| CC[C@@]1(OC(=O)CCN2CCN(c3cccc(OC)c3)CC2)C(=O)OCc2c1cc1n(c2=O)Cc2cc3ccccc3nc2-1 [001129 (8), Camptothecin-20S-ester of 3-[4-(3-methoxyphenyl)-1-piperazinyl]propionic Acid] | 0% | 0% | 150 mg/kg | 73.26% |  |  |  |  |
| CCc1c2c(nc3ccc(OC(=O)N4CCC(N5CCCCC5)CC4)cc13)-c1cc3c(c(=O)n1C2)COC(=O)[C@]3(O)CC [Irinotecan, 7-ethyl-10[4-(1-piperidino)-1-piperidino]carbonyloxy CPT, reference compound] |  | 90.52% |  |  |  |  |  |  |
| CC[C@@]1(OC(=O)CCN2CCN(c3cccc(C(F)(F)F)c3)CC2)C(=O)OCc2c1cc1n(c2=O)Cc2cc3ccccc3nc2-1 [001101 (6), Camptothecin-20S-ester of 3-[4-(3-trifluoromethylphenyl)-1-piperazinyl]-propionic acid] | 0% | 0% | 150 mg/kg | 100% |  |  |  |  |
| CC[C@@]1(OC(=O)CCN2C(=O)c3cccc4c([N+](=O)[O-])ccc(c34)C2=O)C(=O)OCc2c1cc1n(c2=O)Cc2cc3ccccc3nc2-1 [001128 (4), Camptothecin-20S-Ester of 3-(4-Nitro-1,8-Naphthalimide)propionic Acid] |  |  |  |  |  |  |  | 150 mg/kg |
